Legend:
KRAS G12D/RAF1 = molecular target: T1, KRAS G12D/RAF1 (Homo sapiens, UniProt P01116, G12D); test: Protein-protein interaction (PPI) HTRF assay KRAS G12D/RAF1; format: binding; conditions: Table 2
T1 construct: KRAS (1-169) proteins were expressed in BL21 (DE3)-CodonPlus E. coli; His6-MBP (N, cleaved yes)
Experimental: (§1) When RAS proteins are in the active GTP-bound conformation, they bind the effector protein RAF1 at the N-terminus Ras-binding domain (RBD, residues 52-131) (Tran, et al., 2021). Homogenous time resolved fluorescence (HTRF) was used to monitor the interaction between wt or mutant KRAS and RAF1 or wt NRAS and RAF1. Compounds were assayed in the presence of KRAS G12D/V and RAF1 versus wt KRAS to assess activity against mutant and w.t. KRAS. Similarly, compounds were then assayed in the presence of w.t. NRAS and RAF1 to assess RAS isoform selectivity. In all assay formats, His-tagged RAF1 protein was incubated with the HTRF donor, anti-6His Tb Cryptate gold (Cisbio 61DB10RDF), and biotinylated RAS proteins were incubated with the HTRF acceptor, streptavidin-d2 (CisBio 610SADLA). The intensity of the fluorescence signal emitted is proportional to binding between the two proteins. The donor solution was prepared by mixing 16 nM His-tagged RAF1 in protein dilution buffer with 1:100 anti-6His Tb cryptate in PPI-Terbium detection buffer. 16 nM biotinylated RAS protein was diluted into protein dilution buffer (50 mM Tris-HCl pH 7.5, 150 mM NaCl, 0.1 mM MgCl2, 1 mM TCEP, 0.005% Tween20) and mixed with 1:2000 Streptavidin-d2 diluted in PPI-Terbium detection buffer (CisBio 61DB10RDF). 50× compound in DMSO was mixed with 16 nM KRAS-acceptor solution and incubated for 30 minutes at room temperature. After compound pre-incubation with KRAS, the RAF1 donor solution was added to the KRAS-acceptor solution and incubated for 1 hour at room temperature. The fluorescence signal emitted was monitored at 665 nm and 615 nm using an Envision multimode plate reader. The HTRF ratio (665/615) was calculated and normalized to 0% inhibition in the absence of compound and 100% inhibition in the presence of untagged RAF1 protein. PPI KRAS G12D/RAF1, KRAS G12V/RAF1, w.t. KRAS/RAF1 and NRAS/RAF1 IC50 (uM) values of selected compounds are depicted in Table 3 and Table 4 with compounds having a value <0.1 uM as ++++; ≥0.1 uM to 1 uM as +++; ≥1 uM to 10 uM as ++; ≥10 uM to 100 uM as +; and ≥100 uM as NA.

w.t. KRAS/RAF1 = molecular target: T2, w.t. KRAS/RAF1 (Homo sapiens, UniProt P01116); test: Protein-protein interaction (PPI) HTRF assay w.t. KRAS/RAF1; format: binding; conditions: Table 3; wt KRAS/RAF1
T2 construct: KRAS (1-169) proteins were expressed in BL21 (DE3)-CodonPlus E. coli; His6-MBP (N, cleaved yes)
Experimental: as §1

[1] = tested on: phospho-ERK in GP2D (KRAS-G12D) cells; test: pERK In Cell Western (ICW) assay (Method B), GP2D; format: cell-based; conditions: GP2d, 3 h, Table 4
How it was run: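 Cells were seeded at 5,000/well (AGS) or 10,000/well (GP2D, SW620), grown overnight, then treated 3 h at 37 °C with a ½-log 9-point compound dilution. Fixed cells were stained for phospho-ERK with DRAQ5 as DNA counterstain; pERK/DRAQ5 ratio as percent of blank control gave IC50 by 4-parameter fit.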

T1 sequence (P01116 with tags, fused parts or gaps isoform P01116-2 G12D): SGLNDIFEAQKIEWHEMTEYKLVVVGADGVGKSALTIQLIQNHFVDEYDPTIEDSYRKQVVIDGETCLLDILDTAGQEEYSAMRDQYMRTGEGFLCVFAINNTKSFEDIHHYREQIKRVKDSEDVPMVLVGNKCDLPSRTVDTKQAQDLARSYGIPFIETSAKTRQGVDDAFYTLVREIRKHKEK
T2 sequence (P01116 with tags, fused parts or gaps isoform P01116-2): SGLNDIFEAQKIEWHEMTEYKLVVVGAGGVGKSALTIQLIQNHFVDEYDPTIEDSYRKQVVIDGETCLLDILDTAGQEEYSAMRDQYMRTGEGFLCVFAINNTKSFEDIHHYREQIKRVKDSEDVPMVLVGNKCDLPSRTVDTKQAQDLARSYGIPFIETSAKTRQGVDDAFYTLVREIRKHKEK

| SMILES | IC50 (KRAS G12D/RAF1) [µM] | IC50 (w.t. KRAS/RAF1) [µM] | IC50 [1] [µM] |
| --- | --- | --- | --- |
| N#Cc1c(N)sc2c1C1(CC2)CN(c2nc(OCC34CCCN3CC(F)C4)nc(N3CC4CCC(C3)N4)n2)C1 [Compound 1, 2-amino-1′-[4-(3,8-diazabicyclo[3.2.1]octan-3-yl)-6-[[(2R,8S)-2-fluoro-1,2,3,5,6,7-hexahydropyrrolizin-8-yl]methoxy]-1,3,5-triazin-2-yl]spiro[5,6-dihydrocyclopenta[b]thiophene-4,3′-azetidine]-3-carbonitrile] | 0.1 to 1 | 1 to 10 | 0.01 to 0.1 |
| N#Cc1c(N)sc2c1C1(CC2)CN(c2nc(OCC3(CN4CCOCC4)CC3)nc(N3C[C@H]4CC[C@@H](C3)N4)n2)C1 [Compound 2, 2-amino-1′-[4-[[1-(morpholinomethyl)cyclopropyl]methoxy]-6-[(1R,5S)-3,8-diazabicyclo[3.2.1]octan-3-yl]-1,3,5-triazin-2-yl]spiro[5,6-dihydrocyclopenta[b]thiophene-4,3′-azetidine]-3-carbonitrile] | 1 to 10 | 1 to 10 | 0.01 to 0.1 |
| N#Cc1c(N)sc2c1C1(CCC2)CN(c2nc(OCC3(CN4CCOCC4)CC3)nc(N3C[C@H]4CC[C@@H](C3)N4)n2)C1 [Compound 3, 2-amino-1′-[4-[(1R,5S)-3,8-diazabicyclo[3.2.1]octan-3-yl]-6-[[1-(morpholinomethyl)cyclopropyl]methoxy]-1,3,5-triazin-2-yl]spiro[6,7-dihydro-5H-benzothiophene-4,3′-azetidine]-3-carbonitrile] | 1 to 10 | 1 to 10 | 0.01 to 0.1 |
| N#Cc1c(N)sc2c1C1(CC2)CN(c2nc(OCC3(CN4CCOCC4)CC3)nc(N3CCCC4(C3)NC(=O)NC4=O)n2)C1 (stereo not drawn) [Compound 7, 2-amino-1′-[4-(2,4-dioxo-1,3,9-triazaspiro[4.5]decan-9-yl)-6-[[1-(morpholinomethyl)cyclopropyl]methoxy]-1,3,5-triazin-2-yl]spiro[5,6-dihydrocyclopenta[b]thiophene-4,3′-azetidine]-3-carbonitrile] | 0.1 to 1 | 0.1 to 1 | 1 to 20 |
| C[C@@]1(O)CCCN(c2nc(OC[C@@]34CCCN3C[C@H](F)C4)nc(N3CC4(CCc5sc(N)c(C#N)c54)C3)n2)C1 [Compound 10, 2-amino-1′-[4-[[(2R,8S)-2-fluoro-1,2,3,5,6,7-hexahydropyrrolizin-8-yl]methoxy]-6-[(3R)-3-hydroxy-3-methyl-1-piperidyl]-1,3,5-triazin-2-yl]spiro[5,6-dihydrocyclopenta[b]thiophene-4,3′-azetidine]-3-carbonitrile] | 1 to 10 | 1 to 10 | 0.01 to 0.1 |
| N#Cc1c(N)sc2c1C1(CC2)CN(c2nc(OC[C@@]34CCCN3C[C@H](F)C4)nc(N3CCCC(C#N)C3)n2)C1 (stereo partly drawn) [Compound 13, 2-amino-1′-[4-(3-cyano-1-piperidyl)-6-[[(2R,8S)-2-fluoro-1,2,3,5,6,7-hexahydropyrrolizin-8-yl]methoxy]-1,3,5-triazin-2-yl]spiro[5,6-dihydrocyclopenta[b]thiophene-4,3′-azetidine]-3-carbonitrile] | 1 to 10 | 1 to 10 | 0.1 to 1 |

Source: patent US12421254B2, “KRAS modulators and uses thereof” (Quanta Therapeutics, Inc., priority 2023, dated 2025)
